From patent publication US8623429B2, “Stabilized anthocyanin compositions” (Omnica GmbH, priority 2007, dated 2014)

Key:
Type in all cases: physicochemical
[1] = Example 3: stability of black currant extract anthocyanosides, 4 hours at 37° C., pH 7.0, with/without DHLA, GSH or L-cysteine (HPLC)
Protocol: (§1) Sample a) 60 mg black currant extract [35% anthocyanosides] (0.037 mmol anthocyanosides expressed as cyanidin-3-O-rutinoside) were added to a 100 ml flask and filled to volume with sodium phosphate buffer (5% [w/w], pH=7.0) and stirred until dissolution was complete. A 1 ml sample was taken immediately, acidified with formic acid to pH=1.0 and analyzed by HPLC for the content of anthocyanosides (Fresh Sample). The remaining solution was kept for 4 hours at 37° C. (water bath) with stirring. Thereafter samples (Blank sample), representing unprotected degradation, were taken and acidified.
Sample b) 20 mg reduced L-glutathione (0.065 mmol) were added to a 100 ml flask with 60 ml sodium phosphate buffer (5% [w/w], pH=7.0) and stirred until dissolution was complete. 60 mg black currant extract [35% anthocyanosides] (0.037 mmol anthocyanosides expressed as cyanidin-3-O-rutinoside) were then added and the flask was filled to volume with sodium phosphate buffer (5% [w/w], pH=7.0) and kept for 4 hours at 37° C. (water bath) with stirring.
Sample c) 20 mg dihydrolipoic acid (0.096 mmol) were added to a 100 ml flask with 60 ml sodium phosphate buffer (5% [w/w], pH=7.0) and stirred until dissolution was completed. 60 mg black currant extract [35% anthocyanosides] (0.037 mmol anthocyanosides expressed as cyanidin-3-O-rutinoside) were added to the flask, filled to volume with sodium phosphate buffer (5% [w/w], pH=7.0) and kept for 4 hours at 37° C. (water bath) with stirring.
Sample d) 20 mg L-cysteine acid (0.165 mmol) were added to a 100 ml flask with 60 ml sodium phosphate buffer (5% [w/w], pH=7.0) and stirred until dissolution was complete. 60 mg black currant extract [35% anthocyanosides] (0.037 mmol anthocyanosides expressed as cyanidin-3-O-rutinoside) were added to the flask, filled to volume with sodium phosphate buffer (5% [w/w], pH=7.0) and kept for 4 hours at 37° C. (water bath) with stirring.
After 4 hours samples were taken, acidified immediately with formic acid to pH=1.0 and analyzed by HPLC for the content of anthocyanosides. Degradation is expressed as decrease in peak area of individual peaks (calculated as % left after 4 hours).
(§2) Samples were prepared as outlined below in HPLC Analytical Method. Test stability samples were immediately acidified (to block degradation) and injected undiluted following the detailed description provided below.
(§3) HPLC Analytical Method (Materials, Instruments and Methods): […]

[2] = Example 5: degradation over time of black currant anthocyanosides at 37° C., pH 7.0, with/without GSH (HPLC); conditions: pH 7.0, 37° C.; for %-residual anthocyanosides (% left): 4 hours
Protocol: as §1, with “flask,” for “flask and”, “anthocyanosides.” for “anthocyanosides (Fresh Sample).”, “kept” for “kept for 4 hours”, “stirring and 1 ml” for “stirring. Thereafter”, “Samples),” for “sample),”, “every 15 minutes. The samples were analyzed for selected anthocyanosides by HPLC.” for “and acidified.”
Sample b) 20 mg reduced L-glutathione (0.065 mmol) were added to a 100 ml flask with 60 ml sodium phosphate buffer (5% [w/w], pH=7.0) and stirred until dissolution was complete. 60 mg black currant extract [35% anthocyanosides] (0.037 mmol anthocyanosides expressed as cyanidin-3-O-rutinoside) were added, the flask was filled to volume with sodium phosphate buffer (5% [w/w], pH=7.0) and kept for at 37° C. (water bath) with stirring. Every 15 minutes 1 ml samples were taken and analyzed for selected anthocyanosides by HPLC.
as §2

[3] = Example 2: degradation over time of selected bilberry anthocyanosides at 37° C., pH 7.0, with/without GSH (HPLC); conditions: pH 7.0, 37° C.; for %-residual anthocyanosides (% left): 4.30 hours
Protocol: Sample a) 60 mg bilberry extract [37% anthocyanosides] (0.048 mmol expressed as cyanidin-3-O-glucoside) were added to a 100 ml, filled to volume with sodium phosphate buffer (5% [w/w], pH=7.0) and stirred until dissolution was complete. A 1 ml sample was immediately taken and acidified with formic acid to pH=1.0 and analyzed by HPLC for the content of anthocyanosides. The remaining solution was kept at 37° C. (water bath) with stirring and additional 1 ml samples (Blank Samples), representing unprotected degradation, were sampled every 15 minutes. The samples were analyzed for selected anthocyanosides by HPLC.
Sample b) 20 mg reduced L-glutathione (0.065 mmol) were added to a 100 ml flask with 60 ml sodium phosphate buffer (5% [w/w], pH=7.0) and stirred until dissolution was complete. 60 mg bilberry extract [37% anthocyanosides] (0.048 mmol expressed as cyanidin-3-O-glucoside) were added and the flask was filled to volume with sodium phosphate buffer (5% [w/w], pH=7.0) and kept at 37° C. (water bath) with stirring. Every 15 minutes, 1 ml samples were taken and analyzed for selected anthocyanosides by HPLC.
as §2, §3

[4] = Example 1: stability of bilberry extract anthocyanosides, 4 hours at 37° C., pH 7.0, with/without DHLA or GSH (HPLC)
Protocol: (0.048 mmol anthocyanosides expressed as cyanidin-3-O-glucoside) were added to a 100 ml flask and filled to volume with sodium phosphate buffer (5% [w/w], pH=7.0), and stirred until dissolution was complete. A 1 ml sample was taken immediately and acidified with formic acid to pH=1.0 and analyzed by HPLC for the content of anthocyanosides (Fresh Sample). The remaining solution was kept for 4 hours at 37° C. (water bath) with stirring. Thereafter another sample (Blank sample), representing unprotected degradation, was taken and acidified.
(0.048 mmol expressed as cyanidin-3-O-glucoside) were then added and the flask was filled to volume with sodium phosphate buffer (5% [w/w], pH=7.0) and kept for 4 hours at 37° C. (water bath) with stirring.
After 4 hours, samples were taken and acidified immediately with formic acid to pH=1.0 and analyzed by HPLC for the content of anthocyanosides. Degradation is expressed as decrease in peak area of individual peaks (calculated as % left after 4 hours).
Quantitation: External standardization based on linear regression analysis. The response factors of all anthocyanosides separated is quantitified against cyanidin-3-O-glucoside.
Test solutions from incubation experiments (with/without cells and with/without stabilizing agents) were used for analysis after stabilization of anthocyanosides with formic acid. Samples were cleared by filtration prior to injection on to HPLC-system.

[5] = unprotected, pH 7.0, 37° C., 4 hours
[6] = GSH protected sample (20 mg), 0:00 h
[7] = GSH protected sample (20 mg), 0:15 h
[8] = GSH protected sample (20 mg), 0:45 h
[9] = GSH protected sample (20 mg), 1:00 h
[10] = GSH protected sample (20 mg), 1:15 h
[11] = GSH protected sample (20 mg), 1:45 h
[12] = GSH protected sample (20 mg), 2:00 h
[13] = GSH protected sample (20 mg), 2:15 h
[14] = GSH protected sample (20 mg), 2:45 h
[15] = GSH protected sample (20 mg), 3:00 h
[16] = GSH protected sample (20 mg), 3:15 h
[17] = GSH protected sample (20 mg), 3:45 h
[18] = GSH protected sample (20 mg), 4:00 h
[19] = GSH protected sample (20 mg), 4:15 h
[20] = 20 mg reduced L-glutathione, pH 7.0, 37° C., 4 hours
[21] = 30 mg dihydrolipoic acid, pH 7.0, 37° C., 4 hours

C[C@@H]1O[C@@H](OC[C@H]2O[C@@H](Oc3cc4c(O)cc(O)cc4[o+]c3-c3ccc(O)c(O)c3)[C@H](O)[C@@H](O)[C@@H]2O)[C@H](O)[C@H](O)[C@H]1O [Cn-3-O-Rut, Cyanidin-3-O-rutinoside]
Peak Area, Fresh solution ([1]; black currant extract 60 mg/100 ml buffer pH 7.0, fresh sample): 3539 | % left, DHLA 20 mg ([1]; pH 7.0, 37° C., 4 hours): 51.1% | % left, GSH 20 mg ([1]; pH 7.0, 37° C., 4 hours): 65.0% | % left, L-cysteine 20 mg ([1]; pH 7.0, 37° C., 4 hours): 38.9% | Peak Area, DHLA 20 mg ([1]; pH 7.0, 37° C., 4 hours): 1809 | Peak Area, GSH 20 mg ([1]; pH 7.0, 37° C., 4 hours): 2299 | Peak Area, L-cysteine 20 mg ([1]; pH 7.0, 37° C., 4 hours): 1377 | % left, Blank [1, 5]: 33.4% | Peak Area, Blank [1, 5]: 1183 | Peak Area ([2]; Blank sample, 0:00 h): 3539.1 | Peak Area ([2]; Blank sample, 0:15 h): 2707.4 | Peak Area ([2]; Blank sample, 0:30 h): 2620.7 | Peak Area ([2]; Blank sample, 0:45 h): 2342.2 | Peak Area ([2]; Blank sample, 1:00 h): 2278.1 | Peak Area ([2]; Blank sample, 1:30 h): 2130.7 | Peak Area ([2]; Blank sample, 1:45 h): 2104.9 | Peak Area ([2]; Blank sample, 2:00 h): 1894.9 | Peak Area ([2]; Blank sample, 2:15 h): 1851.7 | Peak Area ([2]; Blank sample, 2:30 h): 1790.9 | Peak Area ([2]; Blank sample, 2:45 h): 1694.9 | Peak Area ([2]; Blank sample, 3:00 h): 1573.5 | Peak Area ([2]; Blank sample, 3:15 h): 1531.6 | Peak Area ([2]; Blank sample, 3:30 h): 1370.4 | Peak Area ([2]; Blank sample, 3:45 h): 1361.3 | Peak Area ([2]; Blank sample, 4:00 h): 1182.9 | %-residual anthocyanosides (% left) ([2]; Blank): 33% | Peak Area [2, 6]: 3473.6 | Peak Area [2, 7]: 3108.1 | Peak Area [2, 8]: 2964.3 | Peak Area [2, 9]: 3015.3 | Peak Area [2, 10]: 2958.5 | Peak Area [2, 11]: 2688.8 | Peak Area [2, 12]: 2777.8 | Peak Area [2, 13]: 2579.6 | Peak Area [2, 14]: 2447.1 | Peak Area [2, 15]: 2534.7 | Peak Area [2, 16]: 2366.8 | Peak Area [2, 17]: 2274.2 | Peak Area [2, 18]: 2298.9 | Peak Area [2, 19]: 2199.7 | %-residual anthocyanosides (% left) ([2]; GSH-protected): 66%

COc1cc(-c2[o+]c3cc(O)cc(O)c3cc2OC2OC(CO)C(O)C(O)C2O)cc(O)c1O (stereo not shown) [Pt-3O-Gal, Petunidin 3-o-galactoside]
Peak Area ([3]; Blank Sample, 1:15 h): 124.16 | Peak Area ([3]; Blank Sample, 4:15 h): 102.44 | Peak Area ([3]; Blank Sample, 4:30 h): 58.78 | Peak Area ([3]; Blank sample, 0:00 h): 237.44 | Peak Area ([3]; Blank sample, 0:15 h): 179.60 | Peak Area ([3]; Blank sample, 0:30 h): 203.39 | Peak Area ([3]; Blank sample, 0:45 h): 152.46 | Peak Area ([3]; Blank sample, 1:00 h): 161.49 | Peak Area ([3]; Blank sample, 1:45 h): 144.59 | Peak Area ([3]; Blank sample, 2:00 h): 132.38 | Peak Area ([3]; Blank sample, 2:15 h): 121.96 | Peak Area ([3]; Blank sample, 2:30 h): 96.36 | Peak Area ([3]; Blank sample, 2:45 h): 99.38 | Peak Area ([3]; Blank sample, 3:00 h): 127.47 | Peak Area ([3]; Blank sample, 3:15 h): 123.02 | Peak Area ([3]; Blank sample, 3:30 h): 98.72 | Peak Area ([3]; Blank sample, 4:00 h): 107.51 | %-residual anthocyanosides (% left) ([3]; Blank): 25% | Peak Area ([3]; GSH Protected Sample (20 mg), 0:30 h): 222.35 | Peak Area ([3]; GSH Protected Sample (20 mg), 1:30 h): 202.34 | Peak Area ([3]; GSH Protected Sample (20 mg), 2:30 h): 169.36 | Peak Area ([3]; GSH Protected Sample (20 mg), 3:30 h): 181.53 | Peak Area ([3]; GSH Protected Sample (20 mg), 4:30 h): 181.46 | Peak Area ([3]; GSH Protected Sample (20 mg), 4:45 h): 166.84 | Peak Area [3, 6]: 248.16 | Peak Area [3, 7]: 245.04 | Peak Area [3, 8]: 195.63 | Peak Area [3, 9]: 213.84 | Peak Area [3, 10]: 210.34 | Peak Area [3, 11]: 194.88 | Peak Area [3, 12]: 193.23 | Peak Area [3, 13]: 199.06 | Peak Area [3, 14]: 183.97 | Peak Area [3, 15]: 189.41 | Peak Area [3, 16]: 185.92 | Peak Area [3, 17]: 173.03 | Peak Area [3, 18]: 193.79 | Peak Area [3, 19]: 179.46 | %-residual anthocyanosides (% left) ([3]; GSH-protected): 67% | %-residual anthocyanosides (% left) ([3]; GSH-protected, listed as petunidin-3-O-Galactose): 67% | % left, GSH (4 hours) [4, 20]: 69.3% | Peak Area, GSH (4 hours) [4, 20]: 150.0 | % left, DHLA (4 hours) [4, 21]: 61.4% | Peak Area, DHLA (4 hours) [4, 21]: 132.8 | Peak Area, Fresh (0 hours) ([4]; bilberry extract 60 mg/100 ml sodium phosphate buffer pH 7.0, fresh sample): 216.4 | % left, Blank (4 hours) [4, 5]: 18.8% | Peak Area, Blank (4 hours) [4, 5]: 40.7
